This passage reports IC50 and melting point results from US20210155604A1, “QUINAZOLINE COMPOUND SERVING AS EGFR TRIPLE MUTATION INHIBITOR AND APPLICATIONS THEREOF” (EAST CHINA UNIVERSITY OF SCIENCE AND TECHNOLOGY, priority 2018, published 2021).

Each structure is given as a SMILES string.

The target in data set [1] is EGFR(WT) (Homo sapiens, UniProt P00533). Briefly: ELISA kinase activity detection, EGFR(WT). The data set is classed as biochemical. Conditions: ELISA-based EGFR-TK assay, ATP 5 μM; mean ± SD of at least two determinations. The procedure:
(§1) Tyrosine kinase: EGFR(WT) • EGFR^T790M/L858R(LR/TM) • EGFR^T790M/L858R/[…](LR/TM/CS)
(§2) ELISA Kinase Activity Detection
Enzyme-Linked Immunosorbent Assay (ELISA) was used to detect the ability of a kinase to phosphorylate a substrate and calculate the inhibitory effect of a compound on the kinase activity. […]
(§3) The main steps of ELISA are listed as follows: the substrate Poly(Glu, Tyr) 4:1 was diluted with potassium ion-free PBS to 2.5 μg/well, incubated at 37° C. for 12-16 h to coat the ELISA plate for use. An ATP solution (final concentration of 5 μM) diluted with a reaction buffer (50 mM HEPES pH 7.4, 20 mM MgCl2, 0.1 mM MnCl2, 0.2 mM Na3VO4, 1 mM DTT) was added to each well. A compound or solvent control was added, and then a kinase was added to start the reaction at 37° C. in a shaker for 1 h. The plate was washed for three times with T-PBS, and 100 μL of antibody PY99 (diluted in T-PBS containing 5 mg/mL BSA, 1: 500) was added, and incubated in a shaker at 37° C. for 0.5 h. After washing the plate with T-PBS, 100 μL of horseradish peroxidase-labeled goat anti-mouse IgG (diluted in T-PBS containing 5 mg/mL BSA, 1: 2000) was added, and incubated in a shaker at 37° C. for 0.5 h. After washing the plate again, a developing liquid containing 0.03% H2O2, 2 mg/mL OPD (0.1 mol/L, in citrate buffer solution pH 5.4) was added at 100 μL/well, and incubated for 1-10 min at 25° C. in darkness. 50 μL/well of 2 M H2SO4 was added to quench the reaction, and read with a wavelength-tunable microplate reader (SpectraMax Plus384, Molecular Devices) at a wavelength of 490 nm. The IC50 value was obtained from the inhibition curve.
For orientation: In an ELISA, binding on a coated surface is turned into a signal by an enzyme label.

For data set [2], the target named is EGFR L858R/T790M (LR/TM) (Homo sapiens, UniProt P00533, L858R/T790M). Briefly: ELISA kinase activity detection, EGFR double mutant. The data set is classed as biochemical. Conditions: ELISA-based EGFR-TK assay, ATP 5 μM, mean ± SD.
Chain of EGFR L858R/T790M (LR/TM) (P00533 25-1210 T790M/L858R): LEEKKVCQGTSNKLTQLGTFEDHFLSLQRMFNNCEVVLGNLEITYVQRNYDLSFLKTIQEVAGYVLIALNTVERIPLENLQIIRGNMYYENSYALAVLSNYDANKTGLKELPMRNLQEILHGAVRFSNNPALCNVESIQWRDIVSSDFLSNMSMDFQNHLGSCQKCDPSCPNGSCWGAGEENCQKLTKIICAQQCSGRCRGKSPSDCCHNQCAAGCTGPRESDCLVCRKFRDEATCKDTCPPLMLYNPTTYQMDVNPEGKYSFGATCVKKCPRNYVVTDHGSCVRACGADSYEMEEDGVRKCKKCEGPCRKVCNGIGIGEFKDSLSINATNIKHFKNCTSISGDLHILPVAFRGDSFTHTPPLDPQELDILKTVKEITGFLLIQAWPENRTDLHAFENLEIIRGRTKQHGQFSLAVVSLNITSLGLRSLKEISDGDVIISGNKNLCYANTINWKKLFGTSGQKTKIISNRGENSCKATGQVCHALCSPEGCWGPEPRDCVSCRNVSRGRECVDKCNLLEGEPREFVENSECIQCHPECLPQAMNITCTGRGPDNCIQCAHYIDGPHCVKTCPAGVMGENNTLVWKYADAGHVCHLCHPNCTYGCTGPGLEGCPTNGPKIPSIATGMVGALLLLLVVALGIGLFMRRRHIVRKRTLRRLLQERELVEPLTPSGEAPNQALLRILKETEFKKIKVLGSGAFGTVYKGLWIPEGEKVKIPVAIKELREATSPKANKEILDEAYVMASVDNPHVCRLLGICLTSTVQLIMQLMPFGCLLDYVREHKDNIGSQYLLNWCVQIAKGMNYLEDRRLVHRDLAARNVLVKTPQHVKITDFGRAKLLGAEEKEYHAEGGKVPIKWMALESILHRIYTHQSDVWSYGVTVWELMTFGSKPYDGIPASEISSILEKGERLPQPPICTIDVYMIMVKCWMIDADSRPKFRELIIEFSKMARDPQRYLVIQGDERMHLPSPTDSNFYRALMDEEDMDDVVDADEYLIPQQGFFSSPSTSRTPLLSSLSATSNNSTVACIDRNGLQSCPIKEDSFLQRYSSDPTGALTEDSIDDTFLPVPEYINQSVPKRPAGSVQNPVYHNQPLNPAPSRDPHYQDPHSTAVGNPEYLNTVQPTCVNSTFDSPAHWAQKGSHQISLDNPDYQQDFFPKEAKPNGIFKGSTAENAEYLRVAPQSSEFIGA
Data set [3] concerns the target T1, EGFR L858R/T790M/C797S (LR/TM/CS) (Homo sapiens, UniProt P00533, C797S/L858R/T790M).
T1 construct: purchased BPS Bioscience
Description: ELISA kinase activity detection, EGFR triple mutant. It is filed as biochemical. The settings on record: ELISA-based EGFR-TK assay, ATP 5 μM, mean ± SD. The procedure:
as §1, §2
Enzyme-Linked Immunosorbent Assay (ELISA) was used to detect the ability of a kinase to phosphorylate a substrate and calculate the inhibitory effect of a compound on the kinase activity. The used kinase was EGFR L858R/T790M/C797S (purchased from BPS Bioscience).
as §3

T1 sequence (P00533 25-1210 T790M/C797S/L858R): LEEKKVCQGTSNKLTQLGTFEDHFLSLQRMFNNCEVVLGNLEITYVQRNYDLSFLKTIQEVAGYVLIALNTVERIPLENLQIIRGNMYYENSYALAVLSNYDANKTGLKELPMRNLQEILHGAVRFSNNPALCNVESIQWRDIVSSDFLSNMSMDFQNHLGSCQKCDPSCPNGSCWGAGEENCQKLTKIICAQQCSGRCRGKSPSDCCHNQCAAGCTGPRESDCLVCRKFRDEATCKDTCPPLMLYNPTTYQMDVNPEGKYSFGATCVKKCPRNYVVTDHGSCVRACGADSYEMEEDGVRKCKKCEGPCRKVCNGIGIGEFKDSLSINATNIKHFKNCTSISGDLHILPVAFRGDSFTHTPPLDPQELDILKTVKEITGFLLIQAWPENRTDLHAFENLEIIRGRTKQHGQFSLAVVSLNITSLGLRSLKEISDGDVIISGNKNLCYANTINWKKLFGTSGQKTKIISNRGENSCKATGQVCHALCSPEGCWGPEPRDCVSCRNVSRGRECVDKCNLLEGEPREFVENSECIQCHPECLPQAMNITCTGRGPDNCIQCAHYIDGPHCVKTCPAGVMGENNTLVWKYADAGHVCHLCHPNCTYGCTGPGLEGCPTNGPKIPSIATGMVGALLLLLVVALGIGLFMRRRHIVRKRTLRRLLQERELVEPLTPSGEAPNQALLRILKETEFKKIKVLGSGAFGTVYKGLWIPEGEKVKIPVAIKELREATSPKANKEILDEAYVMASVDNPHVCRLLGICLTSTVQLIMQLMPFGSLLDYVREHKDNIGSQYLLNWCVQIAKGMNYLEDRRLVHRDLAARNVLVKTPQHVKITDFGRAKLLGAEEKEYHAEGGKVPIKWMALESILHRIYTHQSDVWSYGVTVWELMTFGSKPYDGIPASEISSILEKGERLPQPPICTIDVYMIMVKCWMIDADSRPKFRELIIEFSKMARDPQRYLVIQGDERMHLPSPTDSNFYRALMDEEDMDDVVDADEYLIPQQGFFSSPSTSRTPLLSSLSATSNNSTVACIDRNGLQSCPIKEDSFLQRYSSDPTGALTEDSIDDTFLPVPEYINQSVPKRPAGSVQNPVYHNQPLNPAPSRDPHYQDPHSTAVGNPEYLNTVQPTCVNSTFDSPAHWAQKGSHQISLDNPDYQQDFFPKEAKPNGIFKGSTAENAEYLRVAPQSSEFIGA
Chain of EGFR(WT) (P00533 25-1210): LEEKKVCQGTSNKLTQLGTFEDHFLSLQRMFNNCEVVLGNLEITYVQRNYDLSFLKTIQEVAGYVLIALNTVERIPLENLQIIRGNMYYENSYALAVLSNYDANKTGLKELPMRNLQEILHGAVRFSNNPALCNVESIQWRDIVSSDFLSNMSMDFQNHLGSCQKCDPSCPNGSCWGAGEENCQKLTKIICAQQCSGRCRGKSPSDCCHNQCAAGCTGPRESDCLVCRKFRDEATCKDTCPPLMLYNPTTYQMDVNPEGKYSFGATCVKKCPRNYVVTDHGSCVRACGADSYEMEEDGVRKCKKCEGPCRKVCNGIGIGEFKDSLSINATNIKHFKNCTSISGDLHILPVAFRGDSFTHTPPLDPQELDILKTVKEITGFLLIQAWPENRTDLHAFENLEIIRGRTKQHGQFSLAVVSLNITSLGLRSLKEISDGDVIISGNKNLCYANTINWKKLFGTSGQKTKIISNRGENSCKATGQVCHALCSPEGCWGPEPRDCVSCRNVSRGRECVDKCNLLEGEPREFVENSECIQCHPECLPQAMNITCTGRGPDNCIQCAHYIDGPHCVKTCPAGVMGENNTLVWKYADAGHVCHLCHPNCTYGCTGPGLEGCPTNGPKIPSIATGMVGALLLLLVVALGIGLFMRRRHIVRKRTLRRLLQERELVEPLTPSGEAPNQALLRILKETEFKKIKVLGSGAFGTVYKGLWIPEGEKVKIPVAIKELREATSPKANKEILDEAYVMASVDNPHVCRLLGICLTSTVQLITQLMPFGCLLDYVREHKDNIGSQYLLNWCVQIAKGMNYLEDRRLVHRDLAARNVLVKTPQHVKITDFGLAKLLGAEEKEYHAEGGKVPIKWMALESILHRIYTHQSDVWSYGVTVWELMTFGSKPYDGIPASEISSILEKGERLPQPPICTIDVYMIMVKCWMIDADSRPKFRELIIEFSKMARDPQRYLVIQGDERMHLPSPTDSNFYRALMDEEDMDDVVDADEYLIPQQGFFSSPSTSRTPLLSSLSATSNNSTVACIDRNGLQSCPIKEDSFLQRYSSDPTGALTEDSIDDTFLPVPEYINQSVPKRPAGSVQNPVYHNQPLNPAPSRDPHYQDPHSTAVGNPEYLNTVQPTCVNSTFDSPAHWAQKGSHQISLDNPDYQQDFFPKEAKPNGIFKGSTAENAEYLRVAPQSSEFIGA

As to `COc1cc2c(Nc3ccc(NC(=O)C(c4ccccc4)C(C)C)cc3F)ncnc2cc1OCC1CCN(C)CC1` (stereo not shown) [Example 10, N-(3-Fluoro-4-((6-methoxy-7-((1-methylpiperidin-4-yl)methoxy)quinazolin-4-yl)amino)phenyl)-3-methyl-2-phenylbutanamide], the melting point (usually the temperature of the solid-liquid transition) fell in the range of 196 to 196.2 °C. The IC50 (as a rule, the concentration that inhibits the measured activity by half) in data set [1] worked out at 23.1 ± 8.3 nM. For the same molecule, in data set [2], half-maximal inhibition (IC50) required 2030 ± 755 nM. In data set [3], the IC50 came to 3190 ± 2500 nM.

`COc1cc2c(Nc3ccc(NC(=O)C(c4ccccc4)c4ccccc4)cc3F)ncnc2cc1OCC1CCN(C)CC1` [Example 11, N-(3-fluoro-4-((6-methoxy-7-((1-methylpiperidin-4-yl)methoxy)quinazolin-4-yl)amino)phenyl)-2,2-diphenyl]: the melting point fell in the range of 257 to 257.2 °C. The IC50 in data set [1] was found to be 5.6 ± 3.3 nM. Further, in data set [2], the IC50 was 1000 ± 435 nM. This molecule also registered an IC50 in data set [3] of 1300 ± 308 nM.

In the case of `COc1cc2c(Nc3ccccc3P(C)(C)=O)ncnc2cc1OCC1CCN(C)CC1` [Example 13, (2-((6-methoxy-7-((1-methylpiperidin-4-yl)methoxy)quinazolin-4-yl)amino)phenyl)dimethyl phosphine oxide], the melting point is 150.5 to 150.8 °C. In addition, the IC50 in data set [1] was 7340 ± 2520 nM. In data set [2], this molecule registered a concentration for half-maximal inhibition (IC50) above 10000 nM. In addition, in data set [3], the IC50 was above 10000 nM.

`CN1CCC(COc2ccc3c(Nc4ccccc4P(C)(C)=O)ncnc3c2)CC1` [Example 14] yielded a melting point of 170.7 to 172.4 °C. This molecule displayed an IC50 in data set [1] of 2710 ± 80.2 nM. This molecule had an IC50 in data set [2] above 10000 nM. For the same molecule, in data set [3], the IC50 turned out to be 9510 ± 526 nM.
